Reference: ChEMBL document CHEMBL1135136, “Carbonic anhydrase inhibitors. Preparation of potent sulfonamides inhibitors incorporating bile acid tails” (Bioorg Med Chem Lett, 2002)

Key:
Carbonic anhydrase 2 = Carbonic anhydrase 2 (Homo sapiens, UniProt P00918)
Description: Inhibitory activity against human recombinant carbonic anhydrase II (CA2)

Carbonic anhydrase 4 = molecular target: T1, Carbonic anhydrase 4 (Bos taurus, UniProt Q95323)
T1 sequence (Q95323 whole entry): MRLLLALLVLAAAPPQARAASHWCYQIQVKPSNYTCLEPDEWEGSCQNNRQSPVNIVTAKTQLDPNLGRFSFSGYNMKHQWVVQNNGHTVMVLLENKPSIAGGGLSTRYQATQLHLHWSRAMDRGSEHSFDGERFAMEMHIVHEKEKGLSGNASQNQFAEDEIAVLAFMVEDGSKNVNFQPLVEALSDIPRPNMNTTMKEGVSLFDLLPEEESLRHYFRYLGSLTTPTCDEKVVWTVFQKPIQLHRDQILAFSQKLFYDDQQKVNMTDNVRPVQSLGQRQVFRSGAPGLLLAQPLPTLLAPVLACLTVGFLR
Description: Inhibitory activity against bovine carbonic anhydrase IV (CA4), obtained from bovine lung microsomes

Carbonic anhydrase 1 = Carbonic anhydrase 1 (Homo sapiens, UniProt P00915)
Carbonic anhydrase 1, sequence (P00915 whole entry): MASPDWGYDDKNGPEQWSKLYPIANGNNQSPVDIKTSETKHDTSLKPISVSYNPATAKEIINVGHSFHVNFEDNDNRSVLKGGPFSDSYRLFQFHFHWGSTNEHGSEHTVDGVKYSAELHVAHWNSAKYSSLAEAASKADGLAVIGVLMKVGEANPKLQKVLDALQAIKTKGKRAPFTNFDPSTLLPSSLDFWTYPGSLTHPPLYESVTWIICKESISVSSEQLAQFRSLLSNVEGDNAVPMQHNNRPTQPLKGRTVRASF
Description: Inhibitory activity against human recombinant carbonic anhydrase I (CA1)

Structure (SMILES) | Ki (Carbonic anhydrase 2) [nM] | Ki (Carbonic anhydrase 4) [nM] | Ki (Carbonic anhydrase 1) [nM]
C[C@H](CCC(=O)Oc1ccc2nc(S(N)(=O)=O)sc2c1)[C@H]1CC[C@H]2[C@@H]3[C@H](O)C[C@@H]4C[C@H](O)CC[C@]4(C)[C@H]3C[C@H](O)[C@]12C | 4 | 9 | 32
C[C@H](CCC(=O)Nc1ccc2nc(S(N)(=O)=O)sc2c1)[C@H]1CC[C@H]2[C@@H]3C(=O)C[C@@H]4CC(=O)CC[C@]4(C)[C@H]3CC(=O)[C@]12C | 0.8 | 7 | 39
C[C@H](CCC(=O)OCCOc1ccc2nc(S(N)(=O)=O)sc2c1)[C@H]1CC[C@H]2[C@@H]3[C@H](O)C[C@@H]4C[C@H](O)CC[C@]4(C)[C@H]3C[C@H](O)[C@]12C | 3 | 10 | 39
C[C@H](CCC(=O)OCCc1ccc(S(N)(=O)=O)cc1)[C@H]1CC[C@H]2[C@@H]3CC[C@@H]4C[C@H](O)CC[C@]4(C)[C@H]3C[C@H](O)[C@]12C | 78 | 300 | 885
C[C@H](CCC(=O)OCCOc1ccc2nc(S(N)(=O)=O)sc2c1)[C@H]1CC[C@H]2[C@@H]3CC[C@@H]4C[C@H](O)CC[C@]4(C)[C@H]3C[C@H](O)[C@]12C | 4.1 | 8 | 37
C[C@H](CCC(=O)/N=c1\sc(S(N)(=O)=O)nn1C)[C@H]1CC[C@H]2[C@@H]3C(=O)C[C@@H]4CC(=O)CC[C@]4(C)[C@H]3CC(=O)[C@]12C | 1 | 8 | 29
C[C@H](CCC(=O)OCCOc1ccc2nc(S(N)(=O)=O)sc2c1)[C@H]1CC[C@H]2[C@@H]3[C@H](O)C[C@@H]4C[C@H](O)CC[C@]4(C)[C@H]3CC[C@]12C | 5.2 | 9 | 44
C[C@H](CCC(=O)NCc1ccc(S(N)(=O)=O)cc1)[C@H]1CC[C@H]2[C@@H]3[C@@H](O)C[C@@H]4C[C@H](O)CC[C@]4(C)[C@H]3CC[C@]12C | 21 | 40 | 550
C[C@H](CCC(=O)NCCC(=O)Nc1nnc(S(N)(=O)=O)s1)[C@H]1CC[C@H]2[C@@H]3[C@H](O)C[C@@H]4C[C@H](O)CC[C@]4(C)[C@H]3CC[C@]12C | 2 | 45 | 268
C[C@H](CCC(=O)Nc1cc(Cl)c(S(N)(=O)=O)cc1S(N)(=O)=O)[C@H]1CC[C@H]2[C@@H]3CC[C@@H]4C[C@H](O)CC[C@]4(C)[C@H]3CC[C@]12C | 54 | 82 | 200

Second part, the molecule after the results:

Ki (Carbonic anhydrase 2) [nM] | Ki (Carbonic anhydrase 4) [nM] | Ki (Carbonic anhydrase 1) [nM] | Structure (SMILES)
180 | 500 | 8400 | C[C@H](CCC(=O)Nc1ccccc1S(N)(=O)=O)[C@H]1CC[C@H]2[C@@H]3[C@@H](O)C[C@@H]4C[C@H](O)CC[C@]4(C)[C@H]3CC[C@]12C
34 | 53 | 617 | C[C@H](CCC(=O)Nc1ccc(S(N)(=O)=O)cc1Br)[C@H]1CC[C@H]2[C@@H]3[C@H](O)C[C@@H]4C[C@H](O)CC[C@]4(C)[C@H]3CC[C@]12C
80 | 150 | 950 | C[C@H](CCC(=O)Nc1ccc(S(N)(=O)=O)cc1Cl)[C@H]1CC[C@H]2[C@@H]3[C@H](O)C[C@@H]4C[C@H](O)CC[C@]4(C)[C@H]3CC[C@]12C
17 | 30 | 190 | C[C@H](CCC(=O)Nc1ccc(S(N)(=O)=O)cc1Cl)[C@H]1CC[C@H]2[C@@H]3[C@@H](O)C[C@@H]4C[C@H](O)CC[C@]4(C)[C@H]3CC[C@]12C
240 | 615 | 12000 | C[C@H](CCC(=O)NNc1ccc(S(N)(=O)=O)cc1)[C@H]1CC[C@H]2[C@@H]3[C@@H](O)C[C@@H]4C[C@H](O)CC[C@]4(C)[C@H]3CC[C@]12C
186 | 420 | 20000 | C[C@H](CCC(=O)Nc1ccc(S(N)(=O)=O)cc1)[C@H]1CC[C@H]2[C@@H]3[C@H](O)C[C@@H]4C[C@H](O)CC[C@]4(C)[C@H]3CC[C@]12C
